According to ChEMBL document CHEMBL1201862, “PubChem BioAssay data set” (2004):
The source made the active and inactive calls.

Experiments:
[1] = cells; assay type: functional, cell-based
[2] = target: T1, Trace amine-associated receptor 1 (Homo sapiens, UniProt Q96RJ0); assay: Fluorescence-based cell-based high throughput dose response assay to identify agonists of the human trace amine associated receptor 1 (TAAR1).; assay type: functional
T1 sequence (Q96RJ0 whole entry): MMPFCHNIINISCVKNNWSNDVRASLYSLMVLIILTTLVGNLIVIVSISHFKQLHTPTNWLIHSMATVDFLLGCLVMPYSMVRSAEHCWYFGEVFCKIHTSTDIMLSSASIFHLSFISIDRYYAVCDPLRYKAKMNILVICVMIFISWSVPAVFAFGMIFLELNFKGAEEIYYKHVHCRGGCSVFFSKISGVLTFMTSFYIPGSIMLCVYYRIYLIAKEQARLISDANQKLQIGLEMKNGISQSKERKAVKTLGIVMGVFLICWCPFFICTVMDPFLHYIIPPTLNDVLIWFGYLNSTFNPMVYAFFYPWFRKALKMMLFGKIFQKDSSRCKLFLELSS

[3] = target: T1, Trace amine-associated receptor 1; assay: Counterscreen for agonists of the human trace amine associated receptor 1 (hTAAR1): Fluorescence-based cell-based high throughput dose response assay to identify hTAAR1 agonist that also desensitize TAAR1 receptor response.; assay type: functional
[4] = cells; assay type: functional, cell-based; remark: listed apart in the source
[5] = target: T2, DNA repair protein RAD52 homolog (Homo sapiens, UniProt P43351); assay type: functional, biochemical
T2 sequence (P43351 whole entry): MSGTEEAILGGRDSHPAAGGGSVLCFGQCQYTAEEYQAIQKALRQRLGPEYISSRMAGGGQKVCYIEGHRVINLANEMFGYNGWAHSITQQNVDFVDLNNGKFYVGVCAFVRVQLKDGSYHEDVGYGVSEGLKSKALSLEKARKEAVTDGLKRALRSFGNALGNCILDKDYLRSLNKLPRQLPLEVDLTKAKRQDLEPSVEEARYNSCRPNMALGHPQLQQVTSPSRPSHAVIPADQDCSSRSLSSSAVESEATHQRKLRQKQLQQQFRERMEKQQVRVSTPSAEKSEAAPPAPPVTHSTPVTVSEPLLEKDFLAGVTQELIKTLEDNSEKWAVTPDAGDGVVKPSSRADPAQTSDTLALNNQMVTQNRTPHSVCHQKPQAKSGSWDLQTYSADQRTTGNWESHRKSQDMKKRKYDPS

[6] = target: T3, Ubiquitin-conjugating enzyme E2 N (Homo sapiens, UniProt P61088); assay type: functional
T3 sequence (P61088 whole entry): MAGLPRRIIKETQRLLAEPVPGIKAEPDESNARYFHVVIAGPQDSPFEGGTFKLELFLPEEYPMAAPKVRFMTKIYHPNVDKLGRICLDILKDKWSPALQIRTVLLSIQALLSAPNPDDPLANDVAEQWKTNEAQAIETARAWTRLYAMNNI

[7] = target: T4, Bcl-2-related protein A1 (Mus musculus, UniProt Q07440); assay type: functional;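 also: confirmatory dose–response counterscreen on Bfl-1, used to check hits from a UBC13 polyubiquitin inhibitor campaign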
T4 sequence (Q07440 whole entry): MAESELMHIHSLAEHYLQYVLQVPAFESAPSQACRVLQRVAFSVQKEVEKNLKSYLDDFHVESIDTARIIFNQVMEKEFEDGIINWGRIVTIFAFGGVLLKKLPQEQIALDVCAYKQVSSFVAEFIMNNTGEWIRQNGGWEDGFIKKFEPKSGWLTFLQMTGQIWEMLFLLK

[8] = target: T3, Ubiquitin-conjugating enzyme E2 N; assay type: functional; remark: listed apart in the source
[9] = target: T5, DNA repair and recombination protein RAD54-like (Homo sapiens, UniProt Q92698); assay: inhibitors of human RAD54 branch migration, confirmation, biochemical, fluorescence, cherry-picked samples, dose series (AID 651657); assay type: functional
T5 sequence (Q92698 whole entry): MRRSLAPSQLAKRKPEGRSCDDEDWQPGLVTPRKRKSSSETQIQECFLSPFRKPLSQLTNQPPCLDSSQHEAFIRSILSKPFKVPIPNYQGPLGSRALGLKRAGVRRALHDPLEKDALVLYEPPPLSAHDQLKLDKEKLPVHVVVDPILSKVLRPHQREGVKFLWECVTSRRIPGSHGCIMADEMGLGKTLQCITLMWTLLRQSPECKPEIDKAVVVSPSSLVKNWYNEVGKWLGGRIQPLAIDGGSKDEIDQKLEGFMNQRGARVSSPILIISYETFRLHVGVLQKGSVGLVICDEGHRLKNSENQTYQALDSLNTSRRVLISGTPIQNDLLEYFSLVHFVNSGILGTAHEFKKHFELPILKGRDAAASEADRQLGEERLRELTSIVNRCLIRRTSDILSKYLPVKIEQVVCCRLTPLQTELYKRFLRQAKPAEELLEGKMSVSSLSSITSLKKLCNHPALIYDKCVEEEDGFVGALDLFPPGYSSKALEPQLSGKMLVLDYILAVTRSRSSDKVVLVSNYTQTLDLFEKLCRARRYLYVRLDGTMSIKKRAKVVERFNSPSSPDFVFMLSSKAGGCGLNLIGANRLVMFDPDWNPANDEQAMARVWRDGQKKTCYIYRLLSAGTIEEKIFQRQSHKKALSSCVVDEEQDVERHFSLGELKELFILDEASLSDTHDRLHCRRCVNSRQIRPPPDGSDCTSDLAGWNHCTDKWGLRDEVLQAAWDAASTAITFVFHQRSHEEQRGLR

[10] = off-target signal loss in HeLa-CEM21 co-culture – HeLa F-luc CTL cells, cherry-picked, counter-screen for HIV-1 Env fusion inhibitor project, dose response (AID 652040); assay type: functional, cell-based;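 also: potency for signal decrease marking cytotoxic or nonspecific inhibition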
[11] = inhibitors of HIV Env-driven cell fusion, dose response, cherry-pick (AID 652057); assay type: functional, cell-based
[12] = A Cell Based Secondary Assay To Explore Cytotoxicity of Compounds that Sensitize Mycobacterium Tuberculosis to Beta-Lactam Antibiotics.; assay type: functional
[13] = system: P388; assay: cells; assay type: functional; conditions: Mus musculus
[14] = system: P388/ADR; assay: cells; assay type: functional; conditions: Mus musculus
[15] = system: SN12K1; assay: cells; assay type: functional; conditions: Homo sapiens
[16] = cells
[17] = system: Vero; assay: cells; assay type: functional, cell-based; conditions: Chlorocebus sabaeus
[18] = HEp-2 cell cytotoxicity, dose response, cytotoxicity control for RSV inhibitor project, HTS (AID 2410); assay type: functional; conditions: human respiratory syncytial virus
[19] = target: T6, Fructose-bisphosphate aldolase (Mycobacterium tuberculosis, UniProt P9WQA3); assay: Fluorescence-based biochemical high throughput dose response assay for inhibitors of the fructose-bisphosphate aldolase (FBA) of M. tuberculosis.; assay type: functional
T6 sequence (P9WQA3 whole entry): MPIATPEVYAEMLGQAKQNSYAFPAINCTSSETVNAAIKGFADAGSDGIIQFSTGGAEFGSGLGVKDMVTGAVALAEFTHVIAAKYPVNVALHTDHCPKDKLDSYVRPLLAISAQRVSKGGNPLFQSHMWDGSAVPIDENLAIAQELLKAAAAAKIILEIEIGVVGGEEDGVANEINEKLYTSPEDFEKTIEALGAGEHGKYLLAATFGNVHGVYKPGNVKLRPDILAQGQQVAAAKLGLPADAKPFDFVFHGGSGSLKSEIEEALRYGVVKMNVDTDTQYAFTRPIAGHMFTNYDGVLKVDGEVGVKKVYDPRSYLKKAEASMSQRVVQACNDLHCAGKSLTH

[20] = target: Major prion protein (Homo sapiens, UniProt P04156); assay type: functional, cell-based
[21] = cells; remark: listed apart in the source
[22] = system: H9c2; assay: cells; assay type: functional, cell-based; conditions: Rattus norvegicus, H9c2, Myocardium;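 also: confirmatory concentration-response retest of ultra-high-throughput screening hits for modulation of myocardial damage; cell death induced by hydrogen peroxide oxidative stress; compound pretreatment for 60 min then peroxide exposure for 2 h; potency is for protecting the cells against peroxide damage rather than for killing them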
[23] = cytotoxicity in HEK-293T cells, dose response, cytotoxicity control for BCR NF-kB inhibitor project, luminescence, B-cell screen hits (AID 489021); assay type: functional, cell-based;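 also: HEK-293T cells carrying an NF-kB luciferase reporter; cells exposed to compound for about 14 hours before viability readout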
[24] = target: FAD-linked sulfhydryl oxidase ALR (Homo sapiens, UniProt P55789); assay: inhibitors of human ALR sulfhydryl oxidase, dose response, biochemical, H2O2 detection, luminescence, cherry-pick (AID 493248)
[25] = Luminescence Cell-Based Dose Retest to Confirm Inhibitors of Cancer Stem Cells. [Related pubchem assays (depositor defined):AID2717, AID2721]; assay type: functional; conditions: Homo sapiens
[26] = target: Neurotensin receptor type 1 (Homo sapiens, UniProt P30989); assay type: functional;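 also: Image-based confirmatory dose-response assay measuring agonist activity at NTR1; NTR1-expressing U2OS osteosarcoma cells imaged for beta-arrestin GFP spot formation; agonist potency where compounds increase beta-arrestin recruitment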
[27] = P. falciparum Dd2 growth inhibitors, dose response, SYBR Green, cherry-picked samples (AID 1159567); assay type: functional, cell-based
[28] = cytotoxicity in OVCAR8 ovarian cancer cells, dose response, PAX8 project, cell-based, plate reader, dry powder samples (AID 743197); assay type: functional; conditions: OVCAR-8
[29] = target: Paired box protein Pax-8 (Homo sapiens, UniProt Q06710); assay: inhibitors of PAX8-driven TPO luciferase reporter, dose response, RMG-I cells, cherry-pick (AID 687027); assay type: functional, cell-based;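 also: luciferase reporter driven by Pax8 target thyroperoxidase promoter measured by SteadyGlo luminescence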
[30] = IGROV1 ovarian cancer cell cytotoxicity, dose response, PAX8 inhibitor project, plate reader, dry powder samples (AID 743043); assay type: functional, cell-based; conditions: IGROV-1
[31] = NIH:OVCAR-3 ovarian cancer cell cytotoxicity, dose response, PAX8 inhibitor project, plate reader, dry powder samples (AID 743044); assay type: functional, cell-based

## c1ccc(CCn2nnnc2C(c2cccs2)N2CCN(Cc3ccc4c(c3)OCO4)CC2)cc1 (stereo not drawn)
[1]
  IC50: > 29.9 µM (inactive)
[2]
  EC50: 0.389 µM (active)
[3]
  IC50: 2.19 µM (active)
[4]
  EC50: > 29.9 µM (inactive)

## CN(C)CCCN(C(=O)c1ccc(C(=O)c2ccccc2)cc1)c1nc2cc3c(cc2s1)OCCO3
[5]
  AC50: 14.7 µM (active)
[6]
  IC50: 3.92 µM (active)
[7]
  IC50: > 20 µM (inactive)
[8]
  IC50: 7.1 µM (active)

## Cn1c(NCCN2CCCC2)nc2cc(-c3ccsc3)sc2c1=O
[9]
  AC50: 55.8 µM (active)

## CS(=O)(=O)N(Cc1ccc(Cl)cc1)c1ccc(C(=O)NCCC2=CCCCC2)cc1
[10]
  AC50: 6.69 µM (active)
[11]
  AC50: 1.92 µM (active)
[12]
  CC50: > 40 µM (active)

## Cc1c2ccncc2c(C)c2c1[nH]c1ccc(OCCN(C)C)cc12
[13]
  GI50: 0.0153 µM (active)
[14]
  GI50: 0.0283 µM (active)
[15]
  GI50: 0.148 µM (active)

## COc1ccccc1OCC(=O)Nc1nc2c(s1)CCCC2
[16]
  IC50: 28.7 µM (active)
[17]
  IC50: 24.3 µM (active)
[18]
  CC50: 29.5 µM (active)

## COc1ccc(-c2cc(C(=O)NCC3CCCO3)c3cc(C(C)C)ccc3n2)cc1 (stereo not drawn)
[19]
  IC50: 0.797 µM (active)

## O=C(O)C1C2C=CC(O2)C1C(=O)NCCc1cccc(Cl)c1 (stereo not drawn)
[1]
  IC50: > 29.9 µM (inactive)
[2]
  EC50: 0.307 µM (active)
[3]
  IC50: 3.1 µM (active)
[4]
  EC50: > 29.9 µM (inactive)

## Cc1ccn2cc(-c3cnoc3C)nc2c1
[19]
  IC50: > 1.11 µM (active)

## COC1(O)c2cccc(Cl)c2C(=O)N1C1(C(N)=O)CCCCC1 (stereo not drawn)
[13]
  GI50: > 100 µM (inactive)
[14]
  GI50: > 100 µM (inactive)
[15]
  GI50: > 100 µM (inactive)

## COc1cc([C@@H]2c3cc4c(cc3[C@@H](OC3OC5CO[C@@H](c6cccs6)OC5C(O)C3O)[C@H]3COC(=O)[C@H]23)OCO4)cc(OC)c1O (stereo partly drawn)
[13]
  GI50: 0.00815 µM (active)
[14]
  GI50: 0.877 µM (active)
[15]
  GI50: 0.00838 µM (active)

## COc1ccc(Nc2nnc(-c3ccc(O)cc3)c3ccccc23)cc1C(N)=O
[20]
  IC50: 0.759 µM (active)
[21]
  IC50: > 138 µM (inactive)
[22]
  IC50: 15 µM (active)

## CCOC(=O)c1nn(-c2ccccc2)c(C#N)c1NC(=O)c1nn(CC)cc1Br
[23]
  IC50: > 80 µM (inactive)
[12]
  CC50: > 40 µM (active)

## COc1ccc2[nH]c3c(=S)[nH]cnc3c2c1
[20]
  IC50: 5.91 µM (active)
[24]
  AC50: 0.035 µM (active)

## COc1ccc2[nH]c3c(S)ncnc3c2c1
[21]
  IC50: > 138 µM (inactive)

## NC(=O)c1ncn2c(=O)n(CCCl)nnc12 [MITOZOLOMIDE]
[13]
  GI50: 13.8 µM (inactive)
[14]
  GI50: 12.3 µM (inactive)
[15]
  GI50: 75.2 µM (inactive)

## CCCCCc1cc(=O)oc2c(C(CCN3CCCCC3)c3ccc(OC)cc3)c(OC)cc(OC)c12 (stereo not drawn)
[25]
  AC50: 6.49 µM (active)
[8]
  IC50: > 20 µM (inactive)
[26]
  EC50: 15.3 µM (active)

## C#CCOCCOCCOCCNc1nc(N2CCN(C(=O)[C@H](CCCCN)n3cc([C@@H](N)CC(N)=O)nn3)CC2)nc(N2CCN(C(=O)[C@H](CCCCN)n3cc([C@@H](N)CC(N)=O)nn3)CC2)n1
[6]
  IC50: 12.5 µM (active)
[7]
  IC50: > 20 µM (inactive)
[8]
  IC50: 17.3 µM (active)

## C[C@@H]1CN([C@H](C)CO)C(=O)c2c(c3ccccc3n2C)-c2ccccc2CO[C@H]1CN(C)S(=O)(=O)c1ccc(C(F)(F)F)cc1
[27]
  AC50: 2.68 µM (active)
[28]
  AC50: 27 µM (active)
[29]
  AC50: 4.41 µM (active)
[30]
  AC50: 42.5 µM (active)
[31]
  AC50: 23.5 µM (active)

## CCC1OC2(C)OC(=N)C1(C#N)C(C#N)(C#N)C2c1ccccc1 (stereo not drawn)
[19]
  IC50: > 1.11 µM (active)
